Measured values: patent publication US6610681B1, “Neurotherapeutic clavulanate composition and method” (Revaax Pharmaceuticals, LLC, priority 1999, dated 2003)

How the values were obtained:
[1] = system: stress-induced release of cortisol; assay: novelty test, stress-induced release of cortisol; assay type: in vivo, hamster; settings: 10 μg/kg IP
Procedure: The simple procedure of placing an adult male hamster into a novel environment for 5 min causes a significant, predictable increase in blood levels of cortisol (Weinberg and Wong 1986). This novelty test was used to assess the effects of CLAV on stress-induced release of cortisol. Two groups of male hamsters were treated IP with either CLAV (10 μg/kg, n=6), or saline vehicle (n=4). A third group (n=4) received no treatment or isolation stress and served as a control for basal levels of cortisol. Sixty min after treatment animals were taken from their home cage and placed into a novel cage for 5 min. Afterwards animals were sacrificed by decapitation and trunk blood collected for radioimmunoassay of cortisol. All animals were tested under reverse light:dark conditions four hrs into the dark cycle. Data were compared with a one-way ANOVA followed by Fisher PLSD post hoc tests.

rats = assay: Morris water maze, cue navigation; assay type: in vivo, rat
Procedure: On the day following the last day (Day 4) of spatial navigation, animals were tested for cue navigation. In these tests, the platform was raised above water level. One hr before testing animals were treated with CLAV or saline vehicle. The same animals treated with CLAV during spatial navigation were treated with CLAV for cue navigation. Animals were run through a series of two min trials with 45 min between trials. At each trial, the platform was moved to a different quadrant. The cue navigation study was identical to the spatial navigation except the platform was visible and the testing was done over five consecutive trials done on a single day. Animals were scored for latency to find the platform, percent time spent in each quadrant, path distance and swim speed for all testing periods.

[2] = approximately 7-10 mg/kg/day, intravenous with ticarcillin; cited from earlier work

## O=C(O)[C@H]1/C(=C/CO)O[C@@H]2CC(=O)N21 [CLAV, clavulanic acid]
[1]
  effect on stress release of cortisol (summary): no ostensible effect on the release of cortisol
[1]; 60 min, novel cage 5 min
  blood level of cortisol vs untreated, non-stressed control: more than twice the blood level of cortisol
rats; any quadrant on any trial
  percentage of time spent in each quadrant vs vehicle: no significant difference between treatments
rats; visible platform, five trials
  latency to find the platform: no main effect for treatments
rats; vs vehicle
  distance traveled to find the platform: not significantly different
[2]
  adverse reactions or contraindications: no reported adverse reactions or contraindications
